Reference: patent US20040249122A1, “Cationic, amphipathic beta-sheet peptides and uses thereof” (priority 2003, published 2004)
In brackets after ≈: the same amount, converted by molar mass. Where a SMILES comes first, the peptide text is derived from it. Where no end group is shown, it is not given here.

Columns and labels:
[1] = tested on: E. coli, S. aureus, and P. aeruginosa; format: cell-based
Method: Antimicrobial and Hemolytic Assays. Antimicrobial susceptibility testing against Staphylococcus aureus (ATCC 29213), Escherichia coli (ATCC 25922), and Pseudomonas aeruginosa (ATCC 27853) was performed using a modification of the National Committee for Clinical Laboratory Standards microdilution broth assay (22). Mueller-Hinton broth (BBL) was used for diluting the peptide stock solution and for diluting the bacterial inoculum. The inoculum was prepared from mid-logarithmic phase cultures. Microtiter plate wells received aliquots-of 100 μL each of the inoculum and peptide dilution. The final concentration of peptide solution ranged-from 0.25 to 256 μg/mL in two-fold dilutions. The final concentration of bacteria in the wells was 5×10^5 CFU/mL. Peptides were tested in duplicate. In addition to the test peptide, three standard peptides and a non-treated growth control were included to validate the assay. The microtiter plates were incubated overnight at 37° C. and the absorbance was measured at 600 nm. […] Hemolysis at peptide concentrations of 500 μg/mL was determined using a 5% suspension of freshly drawn human erythrocytes, which had been washed twice in phosphate buffered saline. After incubation at 37° C. for 30 min, the suspension was centrifuged at 10,000×g for 10 min and the absorbance at 400 nm was measured. Complete hemolysis was determined by adding 0.2% Triton X-100 in place of the peptide.

[2] = tested on: Pseudomonas aeruginosa (ATCC 27853); format: cell-based; conditions: ATCC 27853
Method: (§1) Antimicrobial and Hemolytic Assays. Antimicrobial susceptibility testing against Staphylococcus aureus (ATCC 29213), Escherichia coli (ATCC 25922), and Pseudomonas aeruginosa (ATCC 27853) was performed using a modification of the National Committee for Clinical Laboratory Standards microdilution broth assay (22). Mueller-Hinton broth (BBL) was used for diluting the peptide stock solution and for diluting the bacterial inoculum. The inoculum was prepared from mid-logarithmic phase cultures. […] The final concentration of peptide solution ranged-from 0.25 to 256 μg/mL in two-fold dilutions. The final concentration of bacteria in the wells was 5×10^5 CFU/mL. Peptides were tested in duplicate. In addition to the test peptide, three standard peptides and a non-treated growth control were included to validate the assay. The microtiter plates were incubated overnight at 37° C. and the absorbance was measured at 600 nm. […] After incubation at 37° C. for 30 min, the suspension was centrifuged at 10,000×g for 10 min and the absorbance at 400 nm was measured.

[3] = tested on: Staphylococcus aureus (ATCC 29213); format: cell-based; conditions: ATCC 29213
Method: as §1

[4] = tested on: Escherichia coli (ATCC 25922); format: cell-based; conditions: ATCC 25922
Method: as §1

[5] = Peptide-induced leakage from calcein-loaded LUV
Method: Peptide-Induced Leakage from Calcein-Loaded LUV. The ability of the peptides to release calcein (MW 623) from LUV of varying lipid composition was compared. LUV were prepared as above, except that-the buffer consisted of 50 mM HEPES, 100 mM NaCl, 0.3 mM EDTA, 80 mM calcein, pH 7.4. Calcein-loaded vesicles were separated from free calcein by size-exclusion chromatography using a Sephadex G-50 column and calcein-free buffer. Calcein leakage was monitored using a Perkin-Elmer LS-500 luminescence spectrometer by measuring the time-dependent increase in fluorescence of calcein (excitation=490 nm, emission=520 nm). LUV containing 8 nmoles of lipid were added to 1.5 mL of buffer in a stirred cuvet at 25° C. An aliquot of peptide was added to achieve the desired lipid-to-peptide ratio (256 to 8). Complete leakage was determined by the addition of 20 μL of 10% Triton X-100. Each value represents at least nine different measurements using at least three different LUV preparations.

Row | Compound | antimicrobial activity (in words) [1] | MIC Pseud. aerug [2] [µg/mL] | MIC Staph. aureus [3] [µg/mL] | MIC E. coli [4] [µg/mL] | calcein leakage from LUV (in words) ([5]; POPC (PC) LUV) | calcein leakage from LUV (in words) ([5]; POPC/POPG LUV, all ratios (1:1 to 4:1)) | calcein leakage from LUV (in words) ([5]; any LUVs containing PE/PG)
1 | CC(C)C[C@H](NC(=O)CNC(=O)[C@H](C)NC(=O)[C@H](CC(C)C)NC(=O)[C@H](CCCCN)NC(=O)[C@H](CCCCN)NC(=O)[C@H](C)NC(=O)[C@H](CC(C)C)NC(=O)CNC(=O)[C@H](C)NC(=O)[C@H](Cc1c[nH]c2ccccc12)NC(=O)[C@H](CCCCN)NC(=O)[C@H](CCCCN)NC(=O)[C@H](C)NC(=O)[C@H](CC(C)C)NC(=O)CNC(=O)[C@H](C)NC(=O)[C@H](CC(C)C)NC(=O)[C@H](CCCCN)NC(=O)[C@@H](N)CCCCN)C(=O)N[C@@H](C)C(N)=O [1,2-Hept, KKLAGLAKKWAGLAKKLAGLA-NH2] (H-KKLAGLAKKWAGLAKKLAGLA-NH2; N-terminus assumed) | relatively low MIC values | 16 (≈ 7.49 µM) | 16 (≈ 7.49 µM) | 8 (≈ 3.75 µM) | – | – | –
2 | CC(C)C[C@H](NC(=O)CNC(=O)[C@H](C)NC(=O)[C@H](CCCCN)NC(=O)[C@H](CC(C)C)NC(=O)[C@H](CCCCN)NC(=O)[C@H](C)NC(=O)[C@H](CC(C)C)NC(=O)CNC(=O)[C@H](C)NC(=O)[C@H](CCCCN)NC(=O)[C@H](Cc1c[nH]c2ccccc12)NC(=O)[C@H](CCCCN)NC(=O)[C@H](C)NC(=O)[C@H](CC(C)C)NC(=O)CNC(=O)[C@H](C)NC(=O)[C@H](CCCCN)NC(=O)[C@H](CC(C)C)NC(=O)[C@@H](N)CCCCN)C(=O)N[C@@H](C)C(N)=O [1,3-Hept, KLKAGLAKWKAGLAKLKAGLA-NH2] (H-KLKAGLAKWKAGLAKLKAGLA-NH2; N-terminus assumed) | slightly active | >256 | 256 (≈ 120 µM) | 32 (≈ 15 µM) | – | – | –
3 | CC[C@H](C)[C@H](NC(=O)[C@H](C)NC(=O)CNC(=O)[C@H](CCCCN)NC(=O)[C@@H](NC(=O)[C@H](CCCCN)NC(=O)[C@@H](NC(=O)[C@H](C)NC(=O)CNC(=O)[C@H](CCCCN)NC(=O)[C@H](Cc1c[nH]c2ccccc12)NC(=O)[C@H](CCCCN)NC(=O)[C@@H](NC(=O)[C@H](C)NC(=O)CNC(=O)[C@H](CCCCN)NC(=O)[C@@H](NC(=O)[C@@H](N)CCCCN)[C@@H](C)CC)[C@@H](C)CC)[C@@H](C)CC)[C@@H](C)CC)C(N)=O [1,3-Hex, K I K G A I K W K G A I K I K G A I-NH2] (H-KIKGAIKWKGAIKIKGAI-NH2; N-terminus assumed) | appreciable antimicrobial activity | 16 (≈ 8.32 µM) | 32 (≈ 16.6 µM) | 8 (≈ 4.16 µM) | – | – | –
4 | CC[C@H](C)[C@H](NC(=O)[C@H](CCCCN)NC(=O)[C@H](C)NC(=O)CNC(=O)[C@@H](NC(=O)[C@H](CCCCN)NC(=O)[C@@H](NC(=O)[C@H](CCCCN)NC(=O)[C@H](C)NC(=O)CNC(=O)[C@H](Cc1c[nH]c2ccccc12)NC(=O)[C@H](CCCCN)NC(=O)[C@@H](NC(=O)[C@H](CCCCN)NC(=O)[C@H](C)NC(=O)CNC(=O)[C@@H](NC(=O)[C@@H](N)CCCCN)[C@@H](C)CC)[C@@H](C)CC)[C@@H](C)CC)[C@@H](C)CC)C(N)=O [1,5-Hex, K I G A K I K W G A K I K I G A K I-NH2] (H-KIGAKIKWGAKIKIGAKI-NH2; N-terminus assumed) | appreciable antimicrobial activity | – | – | – | – | – | –
5 | K I G A K S K H G A K I K I G A K I-NH2 (KIGAKSKHGAKIKIGAKI-NH2) [SH-KIGAKI] | – | – | – | – | low lytic activity | no ability to induce leakage | no ability to induce leakage
